Assays:
Experiment in all cases: Kinase Profiler 10 μM panel
MAPKAP-K2(h) = MAPKAP-K2(h) (Homo sapiens (Human), UniProt P49137)
Method: (§1) In vitro kinase assays were conducted using Kinase Profiler services provided by Eurofins. The experimental method was as follows: the small molecule compound to be tested (0.001-10 μM), the protein kinase to be tested were incubated with a buffer containing substrate, 10 mM magnesium acetate, and [γ-^33P-ATP], the reaction was started by adding Mg\TPmix, after incubation for a period of time at room temperature, a 3% phosphate solution was added to the buffer to stop the reaction. Subsequently, 10 μL of the reaction mixture was quantitatively pipetted onto P30 filter paper, which was washed three times with 75 mM phosphate solution and then once with methanol. The P30 filter paper was air-dried and scintillation fluid was added for scintillation counting.

cKit(D816H)(h) = cKit(D816H)(h) (Homo sapiens (Human), UniProt P10721, D816H)
Method: as §1

IKKa(h) = IKKa(h) (Homo sapiens (Human), UniProt O15111)
Method: as §1

Tie2(Y897S)(h) = Tie2(Y897S)(h) (Homo sapiens (Human), UniProt Q02763, Y897S)
Method: as §1

DDR2(h) = DDR2(h) (Homo sapiens (Human), UniProt Q16832)
Method: as §1

FGFR1(h) = FGFR1(h) (Homo sapiens (Human), UniProt P11362)
Method: as §1

SIK(h) = SIK(h) (Homo sapiens (Human), UniProt P57059)
SIK(h), sequence (P57059 whole entry): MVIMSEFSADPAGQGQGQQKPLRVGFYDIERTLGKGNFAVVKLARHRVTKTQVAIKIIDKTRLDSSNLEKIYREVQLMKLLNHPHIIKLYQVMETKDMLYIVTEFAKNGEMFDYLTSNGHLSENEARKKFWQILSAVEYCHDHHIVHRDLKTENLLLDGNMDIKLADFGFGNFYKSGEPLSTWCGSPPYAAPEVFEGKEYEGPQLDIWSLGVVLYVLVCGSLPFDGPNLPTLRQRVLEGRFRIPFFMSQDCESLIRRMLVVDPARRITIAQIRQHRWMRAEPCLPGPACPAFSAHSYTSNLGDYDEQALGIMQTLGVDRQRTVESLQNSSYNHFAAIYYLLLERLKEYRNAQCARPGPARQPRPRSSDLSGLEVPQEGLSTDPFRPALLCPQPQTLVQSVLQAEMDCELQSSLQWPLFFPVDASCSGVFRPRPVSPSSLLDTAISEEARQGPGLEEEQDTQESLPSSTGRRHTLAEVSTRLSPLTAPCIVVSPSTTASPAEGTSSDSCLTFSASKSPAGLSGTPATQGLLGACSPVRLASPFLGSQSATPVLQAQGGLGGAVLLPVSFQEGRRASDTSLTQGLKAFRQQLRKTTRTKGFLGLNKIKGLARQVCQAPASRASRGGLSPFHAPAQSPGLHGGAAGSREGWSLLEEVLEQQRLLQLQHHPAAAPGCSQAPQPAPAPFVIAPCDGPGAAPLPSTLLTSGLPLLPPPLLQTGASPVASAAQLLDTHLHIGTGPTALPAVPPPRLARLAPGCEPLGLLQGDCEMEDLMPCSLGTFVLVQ
Method: as §1

[1] = target: PI3 Kinase (p110a/p65a)(h) (Homo sapiens (Human), UniProt P42336)
Method: as §1

EphA5(h) = EphA5(h) (Homo sapiens (Human), UniProt P54756)
Method: as §1

TRB2(h) = TRB2(h) (Homo sapiens (Human), UniProt Q92519)
Method: as §1

HPK1(h) = HPK1(h) (Homo sapiens (Human), UniProt Q92918)
Method: as §1

HIPK4(h) = HIPK4(h) (Homo sapiens (Human), UniProt Q8NE63)
HIPK4(h), sequence (Q8NE63 whole entry): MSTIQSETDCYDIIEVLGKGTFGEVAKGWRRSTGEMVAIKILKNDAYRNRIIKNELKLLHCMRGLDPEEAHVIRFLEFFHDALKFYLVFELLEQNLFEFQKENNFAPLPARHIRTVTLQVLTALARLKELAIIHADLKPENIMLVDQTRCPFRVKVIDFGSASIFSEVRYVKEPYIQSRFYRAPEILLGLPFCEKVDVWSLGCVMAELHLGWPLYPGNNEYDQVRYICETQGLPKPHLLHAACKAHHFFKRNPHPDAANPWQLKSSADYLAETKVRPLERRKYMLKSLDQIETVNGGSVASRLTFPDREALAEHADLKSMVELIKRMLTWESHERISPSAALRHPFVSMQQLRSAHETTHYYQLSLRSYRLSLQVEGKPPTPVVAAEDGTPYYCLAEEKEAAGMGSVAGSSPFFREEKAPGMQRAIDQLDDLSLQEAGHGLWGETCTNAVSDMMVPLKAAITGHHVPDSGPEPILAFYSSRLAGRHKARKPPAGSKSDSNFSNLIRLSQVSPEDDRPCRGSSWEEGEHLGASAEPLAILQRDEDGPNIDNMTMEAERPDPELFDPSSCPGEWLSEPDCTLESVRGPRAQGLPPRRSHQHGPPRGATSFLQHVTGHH
Method: as §1

PKAcβ(h) = PKAcβ(h) (Homo sapiens (Human), UniProt P22694)
Method: as §1

Ret(V804M)(h) = Ret(V804M)(h) (Homo sapiens (Human), UniProt P07949, V804M)
Method: as §1

Blk(m) = Blk(m) (Mus musculus (Mouse), UniProt P16277)
Method: as §1

ALK(h) = ALK(h) (Homo sapiens (Human), UniProt Q9UM73)
Method: as §1

SRMS(h) = SRMS(h) (Homo sapiens (Human), UniProt Q9H3Y6)
Method: as §1

ASK1(h) = ASK1(h) (Homo sapiens (Human), UniProt Q99683)
Method: as §1

Met(D1246H)(h) = Met(D1246H)(h) (Homo sapiens (Human), UniProt P08581, D1228H)
Met(D1246H)(h), sequence (P08581 956-1390 D1228H limits assumed): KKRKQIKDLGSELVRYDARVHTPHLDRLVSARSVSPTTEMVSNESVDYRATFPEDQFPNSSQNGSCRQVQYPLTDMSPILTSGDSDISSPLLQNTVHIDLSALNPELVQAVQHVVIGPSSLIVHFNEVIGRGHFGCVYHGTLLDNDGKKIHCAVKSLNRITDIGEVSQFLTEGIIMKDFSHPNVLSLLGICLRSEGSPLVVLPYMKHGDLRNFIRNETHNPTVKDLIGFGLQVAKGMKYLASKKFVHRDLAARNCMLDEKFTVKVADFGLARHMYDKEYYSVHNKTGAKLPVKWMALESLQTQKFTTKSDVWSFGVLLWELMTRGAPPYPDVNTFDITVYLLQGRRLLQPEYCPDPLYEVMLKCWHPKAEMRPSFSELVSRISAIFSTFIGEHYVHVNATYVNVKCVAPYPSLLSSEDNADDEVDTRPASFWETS
Method: as §1

FAK(h) = FAK(h) (Homo sapiens (Human), UniProt Q05397)
Method: as §1

PKCγ(h) = PKCγ(h) (Homo sapiens (Human), UniProt P05129)
Method: as §1

ICK(h) = ICK(h) (Homo sapiens (Human), UniProt Q9UPZ9)
Method: as §1

MRCKβ(h) = MRCKβ(h) (Homo sapiens (Human), UniProt Q9Y5S2)
Method: as §1

CK2(h) = CK2(h) (Homo sapiens (Human), UniProt P68400)
Method: as §1

ALK1(h) = ALK1(h) (Homo sapiens (Human), UniProt P37023)
ALK1(h), sequence (P37023 22-503): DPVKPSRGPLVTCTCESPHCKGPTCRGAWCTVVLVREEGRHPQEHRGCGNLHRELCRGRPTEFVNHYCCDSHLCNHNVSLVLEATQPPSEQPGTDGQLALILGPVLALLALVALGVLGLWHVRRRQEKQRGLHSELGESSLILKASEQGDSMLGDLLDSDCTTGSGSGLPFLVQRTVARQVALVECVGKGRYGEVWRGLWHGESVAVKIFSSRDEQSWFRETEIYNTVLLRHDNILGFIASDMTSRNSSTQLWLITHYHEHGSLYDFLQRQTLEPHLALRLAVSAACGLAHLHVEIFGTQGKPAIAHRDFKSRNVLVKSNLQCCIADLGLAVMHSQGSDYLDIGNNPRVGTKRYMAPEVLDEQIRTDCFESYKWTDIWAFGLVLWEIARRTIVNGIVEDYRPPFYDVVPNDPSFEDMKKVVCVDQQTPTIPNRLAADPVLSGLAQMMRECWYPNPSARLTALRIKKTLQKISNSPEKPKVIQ
Method: as §1

PKBα(h) = PKBα(h) (Homo sapiens (Human), UniProt P31749)
Method: as §1

IR(h) = IR(h) (Homo sapiens (Human), UniProt P06213)
Method: as §1

PRAK(h) = PRAK(h) (Homo sapiens (Human), UniProt Q8IW41)
PRAK(h), sequence (Q8IW41 whole entry): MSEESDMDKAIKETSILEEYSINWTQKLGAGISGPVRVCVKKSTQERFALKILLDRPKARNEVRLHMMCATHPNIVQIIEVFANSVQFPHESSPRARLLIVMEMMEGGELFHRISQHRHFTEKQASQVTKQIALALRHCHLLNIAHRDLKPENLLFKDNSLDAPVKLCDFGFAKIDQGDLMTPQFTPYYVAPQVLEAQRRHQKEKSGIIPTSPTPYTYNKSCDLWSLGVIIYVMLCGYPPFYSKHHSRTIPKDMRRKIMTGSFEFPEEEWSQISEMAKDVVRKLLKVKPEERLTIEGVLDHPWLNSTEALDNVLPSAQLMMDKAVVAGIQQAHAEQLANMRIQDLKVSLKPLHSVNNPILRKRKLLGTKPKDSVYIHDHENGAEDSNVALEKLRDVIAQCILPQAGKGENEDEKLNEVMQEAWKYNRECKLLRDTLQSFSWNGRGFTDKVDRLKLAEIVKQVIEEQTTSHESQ
Method: as §1

DYRK1B(h) = DYRK1B(h) (Homo sapiens (Human), UniProt Q9Y463)
Method: as §1

CLK2(h) = CLK2(h) (Homo sapiens (Human), UniProt P49760)
Method: as §1

RIPK1(h) = RIPK1(h) (Homo sapiens (Human), UniProt Q13546)
Method: as §1

ROCK-II(h) = ROCK-II(h) (Homo sapiens (Human), UniProt O75116)
Method: as §1

EGFR(L858R)(h) = EGFR(L858R)(h) (Homo sapiens (Human), UniProt P00533, L858R)
Method: as §1

MOK(h) = MOK(h) (Homo sapiens (Human), UniProt Q9UQ07)
Method: as §1

MAPKAP-K2(h), sequence (P49137 whole entry): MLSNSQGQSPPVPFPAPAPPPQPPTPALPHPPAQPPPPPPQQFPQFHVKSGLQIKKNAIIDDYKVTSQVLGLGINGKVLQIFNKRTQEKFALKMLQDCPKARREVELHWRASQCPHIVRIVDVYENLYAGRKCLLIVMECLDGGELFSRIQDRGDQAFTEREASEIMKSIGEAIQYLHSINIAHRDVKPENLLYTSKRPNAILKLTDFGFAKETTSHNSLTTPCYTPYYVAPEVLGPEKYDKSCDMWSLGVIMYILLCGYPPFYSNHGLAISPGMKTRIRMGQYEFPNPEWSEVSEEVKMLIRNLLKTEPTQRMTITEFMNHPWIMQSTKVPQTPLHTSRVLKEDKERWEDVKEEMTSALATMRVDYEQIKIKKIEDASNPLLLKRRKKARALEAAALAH
FGFR1(h), sequence (P11362 22-822): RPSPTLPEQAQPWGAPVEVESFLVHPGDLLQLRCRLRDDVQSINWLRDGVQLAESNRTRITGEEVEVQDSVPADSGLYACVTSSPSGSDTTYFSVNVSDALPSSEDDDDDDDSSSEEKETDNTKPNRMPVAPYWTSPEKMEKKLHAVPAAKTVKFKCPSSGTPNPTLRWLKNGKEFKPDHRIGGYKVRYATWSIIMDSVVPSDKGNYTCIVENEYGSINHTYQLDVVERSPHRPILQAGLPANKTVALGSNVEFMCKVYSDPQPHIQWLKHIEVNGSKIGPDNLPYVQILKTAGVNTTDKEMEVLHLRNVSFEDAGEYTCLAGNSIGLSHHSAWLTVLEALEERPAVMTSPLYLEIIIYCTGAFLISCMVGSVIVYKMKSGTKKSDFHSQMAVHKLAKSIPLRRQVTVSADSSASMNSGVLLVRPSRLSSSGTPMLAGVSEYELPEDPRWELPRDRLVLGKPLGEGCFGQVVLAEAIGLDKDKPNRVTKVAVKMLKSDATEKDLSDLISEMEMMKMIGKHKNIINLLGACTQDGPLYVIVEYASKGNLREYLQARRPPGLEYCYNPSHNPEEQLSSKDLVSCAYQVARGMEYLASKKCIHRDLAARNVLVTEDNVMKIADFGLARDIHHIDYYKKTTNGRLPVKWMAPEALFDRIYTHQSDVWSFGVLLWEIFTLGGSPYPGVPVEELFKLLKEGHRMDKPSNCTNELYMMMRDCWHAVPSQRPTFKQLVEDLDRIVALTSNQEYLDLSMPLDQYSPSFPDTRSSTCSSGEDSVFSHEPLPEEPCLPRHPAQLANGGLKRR

SMILES: C[C@H](NC(=O)c1c[nH]c2ccc(-c3ccc4nc(NC(=O)C5CC5)sc4c3)cc12)c1cccc(F)c1 [Compound 34, (S)-5-(2-(cyclopropanecarboxamido)benzo[d]thiazol-6-yl)-N-(1-(3-fluorophenyl)ethyl)-1H-indole-3-carboxamide]
- Inhibition ratio (MAPKAP-K2(h)): −7%
- Inhibition ratio (cKit(D816H)(h)): 44%
- Inhibition ratio (IKKa(h); IKKa(h)): 5%
- Inhibition ratio (Tie2(Y897S)(h)): 88%
- Inhibition ratio (DDR2(h)): 76%
- Inhibition ratio (FGFR1(h)): 72%
- Inhibition ratio (SIK(h)): 21%
- Inhibition ratio [1]: 55%
- Inhibition ratio (EphA5(h)): 40%
- Inhibition ratio (TRB2(h)): 65%
- Inhibition ratio (HPK1(h)): 75%
- Inhibition ratio (HIPK4(h)): 95%
- Inhibition ratio (PKAcβ(h)): −4%
- Inhibition ratio (Ret(V804M)(h)): 98%
- Inhibition ratio (Blk(m)): 65%
- Inhibition ratio (ALK(h)): 48%
- Inhibition ratio (SRMS(h)): 12%
- Inhibition ratio (ASK1(h)): 12%
- Inhibition ratio (Met(D1246H)(h)): 95%
- Inhibition ratio (FAK(h)): 33%
- Inhibition ratio (PKCγ(h)): 7%
- Inhibition ratio (ICK(h)): 7%
- Inhibition ratio (MRCKβ(h)): −5%
- Inhibition ratio (CK2(h)): −9%
- Inhibition ratio (ALK1(h)): 50%
- Inhibition ratio (PKBα(h)): 11%
- Inhibition ratio (IR(h)): 36%
- Inhibition ratio (PRAK(h)): 27%
- Inhibition ratio (DYRK1B(h)): 12%
- Inhibition ratio (CLK2(h)): 77%
- Inhibition ratio (RIPK1(h)): 100%
- Inhibition ratio (ROCK-II(h)): 11%
- Inhibition ratio (EGFR(L858R)(h)): 65%
- Inhibition ratio (MOK(h)): −15%

SMILES: C[C@H](NC(=O)c1cn(C)c2ccc(-c3ccn4nc(NC(=O)C5CC5)nc4c3)cc12)c1cccc(F)c1 [Compound 94, (S)-5-(2-(cyclopropanecarboxamido)-[1,2,4]triazolo[1,5-a]pyridin-7-yl)-N-(1-(3-fluorophenyl)ethyl)-1-methyl-1H-indole-3-carboxamide]
- Inhibition ratio/% (MAPKAP-K2(h)): −1%
- Inhibition ratio/% (cKit(D816H)(h)): 42%
- Inhibition ratio/% (IKKa(h); IKKα(h)): 29%
- Inhibition ratio/% (Tie2(Y897S)(h)): 18%
- Inhibition ratio/% (DDR2(h)): 20%
- Inhibition ratio/% (FGFR1(h)): 70%
- Inhibition ratio/% (SIK(h)): 54%
- Inhibition ratio/% [1]: 4%
- Inhibition ratio/% (EphA5(h)): 4%
- Inhibition ratio/% (TRB2(h)): −5%
- Inhibition ratio/% (HPK1(h)): −3%
- Inhibition ratio/% (HIPK4(h)): 68%
- Inhibition ratio/% (PKAcβ(h)): 40%
- Inhibition ratio/% (Ret(V804M)(h)): 45%
- Inhibition ratio/% (Blk(m)): 77%
- Inhibition ratio/% (ALK(h)): −7%
- Inhibition ratio/% (SRMS(h)): 43%
- Inhibition ratio/% (ASK1(h)): 38%
- Inhibition ratio/% (Met(D1246H)(h)): 34%
- Inhibition ratio/% (FAK(h)): −3%
- Inhibition ratio/% (PKCγ(h)): 47%
- Inhibition ratio/% (ICK(h)): 52%
- Inhibition ratio/% (MRCKβ(h)): −4%
- Inhibition ratio/% (CK2(h)): 44%
- Inhibition ratio/% (ALK1(h)): 0%
- Inhibition ratio/% (PKBα(h)): −11%
- Inhibition ratio/% (IR(h)): 27%
- Inhibition ratio/% (PRAK(h)): 30%
- Inhibition ratio/% (DYRK1B(h)): −1%
- Inhibition ratio/% (CLK2(h)): 77%
- Inhibition ratio/% (RIPK1(h)): 100%
- Inhibition ratio/% (ROCK-II(h)): 7%
- Inhibition ratio/% (EGFR(L858R)(h)): −5%
- Inhibition ratio/% (MOK(h)): −15%
